{"source": "patent US20230248715A1", "about": "“METHOD OF TREATING ACUTE MIGRAINE WITH CGRP-ACTIVE COMPOUND” (Merck Sharp & Dohme Corp., priority 2016, published 2023)", "key": {"[1]": {"experiment": "Phase IIb randomized, double-blind, placebo-controlled trial of ubrogepant (MK-1602-006; NCT01613248): safety endpoints", "format": "in vivo, human", "method": "A Phase IIb, multicenter, randomized, double-blind, placebo-controlled trial was conducted (Merck Protocol MK-1602-006;published online at ClinicalTrials.gov as NCT01613248) to investigate the efficacy and safety of ubrogepant across a range of doses. The study was conducted in accordance with principles of Good Clinical Practice, and was approved by Schulman Associates Institutional Review Board Inc. Each participant provided written informed consent. This study complied with the International Headache Society's guidelines for controlled trials of drugs in migraine, including the use of two-hour pain freedom as an endpoint. The sample size was large, populations were well balanced, and demographics were reflective of the broader migraine populations, contributing to the generalizability of the trial.\nWith reference to FIG. 1, eligible participants were allocated in a 1:1 ratio to one of the following treatment groups: 1, 10, 25, 50, and 100 mg of ubrogepant, or placebo. Study medication was provided to participants in a single bottle, with a single dose per bottle. Participants were instructed to take the dose when they experienced a qualifying migraine defined by the following conditions: migraine headache was moderate or severe (grade 2 or 3 on pain scale); migraine headache started less than four hours earlier; the migraine headache was a new headache that had not been previously treated and was not a recurrence of a previous migraine head ache (at least 48 hours had elapsed since the complete termination of their last attack (pain and all associated symptoms); no other migraine headache or headache had occurred in the previous 48 hours; the migraine headache was not already resolving on its own; and no prohibited medication had been taken.\nParticipants were also monitored for safety endpoints, including standard safety assessment (medical history and physical examination; vital signs; electrocardiogram; laboratory tests including hematology, blood chemistry, and urinalysis; and female participants of childbearing potential were administered pregnancy tests) and adverse events, including any post-screening elevation in participants of aspartate amino-transferase (AST) and/or ALT, defined as: >3×upper-limit-of-normal (>3×ULN).\nFor the analysis of efficacy data, the Full-Analysis-Set population served as the primary population. […] The All-Subjects-as-Treated (ASaT) population was used for safety analyses."}, "[2]": {"test_system": "acute migraine", "experiment": "Phase IIb randomized, double-blind, placebo-controlled trial of ubrogepant (MK-1602-006; NCT01613248): efficacy", "format": "in vivo, human", "method": "A Phase IIb, multicenter, randomized, double-blind, placebo-controlled trial was conducted (Merck Protocol MK-1602-006;published online at ClinicalTrials.gov as NCT01613248) to investigate the efficacy and safety of ubrogepant across a range of doses. The study was conducted in accordance with principles of Good Clinical Practice, and was approved by Schulman Associates Institutional Review Board Inc. Each participant provided written informed consent. This study complied with the International Headache Society's guidelines for controlled trials of drugs in migraine, including the use of two-hour pain freedom as an endpoint. The sample size was large, populations were well balanced, and demographics were reflective of the broader migraine populations, contributing to the generalizability of the trial. Participants were allocated in a double-blind fashion using a computer-generated randomized allocation schedule prepared by a blinded statistician. Randomization was stratified based on the participant's self-reported usual triptan response: oral triptan high-responder (current users of triptans who respond […]); oral triptan low-responder (current users of triptans who respond <75% of the time or those who have tried triptans but no longer use them); oral triptan naive. Numbered containers were used to implement allocation. Personnel at each study site used a central interactive voice response system to determine which container should be given to which participant. All study personnel, including investigators, site staff, participants, and sponsor staff remained blinded to treatment allocation throughout the study. Unblinding took place after data collection was complete. After being randomized, participants had up to two months to treat a qualifying migraine (as defined herein). Once the targeted number of treated participants with evaluable data was reached, study enrollment was stopped, as specified in the protocol at the sponsor's discretion. Participants who were enrolled but had not treated a migraine were asked to return their study medication and were discontinued from the study With reference to FIG. 1, eligible participants were allocated in a 1:1 ratio to one of the following treatment groups: 1, 10, 25, 50, and 100 mg of ubrogepant, or placebo. Study medication was provided to participants in a single bottle, with a single dose per bottle. Participants were instructed to take the dose when they experienced a qualifying migraine defined by the following conditions: migraine headache was moderate or severe (grade 2 or 3 on pain scale); migraine headache started less than four hours earlier; the migraine headache was a new headache that had not been previously treated and was not a recurrence of a previous migraine head ache (at least 48 hours had elapsed since the complete termination of their last attack (pain and all associated symptoms); no other migraine headache or headache had occurred in the previous 48 hours; the migraine headache was not already resolving on its own; and no prohibited medication had been taken. The onset of migraine and the results from administering the study medication were self-reported by participants using a paper diary. Headache severity was measured on the following pain scale: 0 none; 1 mild; 2 moderate; 3 severe. Participants assessed headache at baseline and then every 30 minutes up to two hours, then hourly up to four hours and at 6,8,24, and 48 hours. The primary efficacy endpoints were pain freedom at two hours post-dose (reduction in headache severity from grade 2 or 3 at baseline to grade 0) and headache response at two hours post-dose (reduction in headache severity from grade 2 or 3 at baseline to grade 1 or 0). […]"}}}
{"smiles": "C[C@@H]1[C@H](c2ccccc2)C[C@H](NC(=O)c2cnc3c(c2)C[C@@]2(C3)C(=O)Nc3ncccc32)C(=O)N1CC(F)(F)F", "note": "[ubrogepant]", "values": [{"measurement": "dose dependence of AEs", "setting": "[1]; 1-100 mg single dose", "result": "No AEs showed clear dose dependence"}, {"measurement": "incidence of AEs within the 14 days post-dose", "setting": "[1]; compared with incidence within 48 hours", "result": "generally similar to the incidence within 48 hours"}, {"measurement": "other abnormal laboratory values", "setting": "[1]; single dose", "result": "no other abnormal laboratory values of clinical relevance"}, {"measurement": "post-treatment elevations of ALT >3×ULN", "setting": "[1]; single dose", "result": "no observed post-treatment elevations"}, {"measurement": "liver enzyme increases", "setting": "[1]; single-dose study", "result": "no liver enzyme increases clearly attributable to administration of ubrogepant"}, {"measurement": "tolerability on administration", "setting": "[1]; summary statement", "result": "well-tolerated"}, {"measurement": "two-hour pain-free rate vs placebo", "setting": "[2]; 25 mg, oral, two hours post-dose, nominal p value", "result": "nominally significantly higher two-hour pain-free rate than placebo"}, {"measurement": "sustained pain freedom 2-24 hours vs placebo", "setting": "[2]; 25 mg, oral, nominal p value", "result": "Nominally significant differences from placebo"}, {"measurement": "sustained pain relief 2-48 hours vs placebo", "setting": "[2]; 25 mg, oral, nominal p value", "result": "Nominally significant differences from placebo"}, {"measurement": "total migraine freedom at two hours vs placebo", "setting": "[2]; 25 mg, oral, nominal p value", "result": "Nominally significant differences from placebo"}, {"measurement": "two-hour pain-free rate vs placebo", "setting": "[2]; 50 mg, oral, two hours post-dose, nominal p value", "result": "nominally significantly higher two-hour pain-free rate than placebo"}, {"measurement": "absence of phonophobia at two hours vs placebo", "setting": "[2]; 50 mg, oral, nominal p value", "result": "Nominally significant differences from placebo"}, {"measurement": "absence of photophobia at two hours vs placebo", "setting": "[2]; 50 mg, oral, nominal p value", "result": "Nominally significant differences from placebo"}, {"measurement": "sustained pain freedom 2-24 hours vs placebo", "setting": "[2]; 50 mg, oral, nominal p value", "result": "Nominally significant differences from placebo"}, {"measurement": "sustained pain relief 2-24 hours vs placebo", "setting": "[2]; 50 mg, oral, nominal p value", "result": "Nominally significant differences from placebo"}, {"measurement": "sustained pain relief 2-48 hours vs placebo", "setting": "[2]; 50 mg, oral, nominal p value", "result": "Nominally significant differences from placebo"}, {"measurement": "total migraine freedom 2-24 hours vs placebo", "setting": "[2]; 50 mg, oral, nominal p value", "result": "Nominally significant differences from placebo"}, {"measurement": "total migraine freedom at two hours vs placebo", "setting": "[2]; 50 mg, oral, nominal p value", "result": "Nominally significant differences from placebo"}, {"measurement": "two-hour pain freedom vs placebo", "setting": "[2]; 100 mg, oral, two hours post-dose", "result": "statistically significant superiority to placebo"}, {"measurement": "secondary endpoints vs placebo", "setting": "[2]; 100 mg, oral, nominal p values", "result": "nominally significant improvements vs placebo on all secondary endpoints except absence of nausea at two hours"}, {"measurement": "treatment effects across most endpoints (all efficacy data)", "setting": "[2]; 25-mg, 50-mg, and 100-mg doses", "result": "consistent positive treatment effects"}, {"measurement": "response trend across ubrogepant doses, proportion of participants who achieved two-hour pain freedom", "setting": "[2]; oral tablet, single dose, 1, 10, 25, 50, 100 mg, p<0.001 for trend test", "result": "positive response trend"}]}
